According to patent US20040242459A1 (priority 2001, published 2004):

Legend:
[1] = test system: PPAR-α, PPAR-γ and PPAR-δ; test: Classification of ligands according to their PPAR activity (Table A); design: species or system human
[2] = biological target: T1, recombinant human PPARδ (GST-PPARδ) (Homo sapiens, UniProt Q03181); test: Scintillation Proximity Assay, displacement of [3H2]Compound B from PPARδ; type: binding; details: human PPARδ binding; read-out: IC50 (μM: SPA or BND) Delta
T1 construct: The full length human cDNAs for PPARδ and PPARα were subcloned into the pGEX-KT expression vector; made in house; host or cells: E. coli
T1 sequence (Q03181 1-441): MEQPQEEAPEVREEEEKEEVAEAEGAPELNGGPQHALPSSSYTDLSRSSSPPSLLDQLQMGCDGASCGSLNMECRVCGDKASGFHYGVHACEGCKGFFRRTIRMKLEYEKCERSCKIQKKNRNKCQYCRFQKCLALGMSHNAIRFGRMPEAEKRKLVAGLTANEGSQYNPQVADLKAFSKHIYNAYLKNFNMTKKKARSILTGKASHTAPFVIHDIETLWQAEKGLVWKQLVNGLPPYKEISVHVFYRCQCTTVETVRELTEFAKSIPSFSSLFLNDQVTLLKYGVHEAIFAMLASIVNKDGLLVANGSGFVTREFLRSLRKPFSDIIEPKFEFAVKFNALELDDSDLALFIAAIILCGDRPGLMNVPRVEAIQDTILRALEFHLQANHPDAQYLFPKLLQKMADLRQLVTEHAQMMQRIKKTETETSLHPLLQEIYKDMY
Description: (§1) As an approach to identifying human PPAR agonists, a Scintillation Proximity Assay was used to characterize PPAR-γ, PPAR-δ, and PPAR-α ligands.
(§2) Human PPARγ2, human PPARδ and human PPARα were expressed as GST-fusion proteins in E. coli. The full length human cDNA for PPARγ 2 was subcloned into the pGEX-2 T expression vector (Amersham Pharmacia Biotech, Inc.). The full length human cDNAs for PPARδ and PPARα were subcloned into the pGEX-KT expression vector (Amersham Pharmacia Biotech, Inc.). E. coli containing the respective plasmids were propagated, induced, and harvested by centrifugation. The resuspended pellet was broken in a French press and debris removed by centrifugation. Recombinant human PPAR receptors were purified by affinity chromatography on glutathione sepharose. After application to the column, and one wash, receptor was eluted with glutathione. Glycerol (10%) was added to stabilize the receptor and aliquots were stored at −80° C.
(§3) After incubation for ˜16 h at 15° C. with shaking, the assay plates were counted in a Packard Topcount with quench correction.

[3] = biological target: T2, recombinant human PPARα (GST-PPARα) (Homo sapiens, UniProt Q07869); test: Scintillation Proximity Assay, displacement of [3H2]Compound A from PPARα; type: binding
T2 construct: The full length human cDNAs for PPARδ and PPARα were subcloned into the pGEX-KT expression vector; made in house; host or cells: E. coli
T2 sequence (Q07869 1-468): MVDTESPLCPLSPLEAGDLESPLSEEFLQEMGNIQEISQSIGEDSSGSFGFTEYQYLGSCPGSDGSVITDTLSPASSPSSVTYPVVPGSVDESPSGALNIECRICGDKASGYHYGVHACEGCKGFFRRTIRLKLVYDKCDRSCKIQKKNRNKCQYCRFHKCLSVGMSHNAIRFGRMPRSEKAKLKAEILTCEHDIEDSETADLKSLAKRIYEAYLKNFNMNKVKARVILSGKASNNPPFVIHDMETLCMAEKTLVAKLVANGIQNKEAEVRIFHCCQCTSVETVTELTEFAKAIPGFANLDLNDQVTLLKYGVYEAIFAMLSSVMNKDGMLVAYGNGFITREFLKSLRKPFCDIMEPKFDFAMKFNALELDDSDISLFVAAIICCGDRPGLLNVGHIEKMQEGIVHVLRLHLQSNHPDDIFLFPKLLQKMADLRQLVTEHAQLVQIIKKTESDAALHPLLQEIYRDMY
Description: as §1, §2, §3

[4] = test system: adjuvant-induced arthritis in female Lewis rats
Protocol: Nine groups of 10 rats each were injected with an emulsion containing 0.5 mg of Mycobacterium butyricum in 0.1 ml of light mineral oil, and a negative control group of 10 rats was not injected with adjuvant. Body weights, primary (injected) and contralateral (non-injected) paw volumes (determined by mercury displacement plethysmography) and lateral radiographs (obtained under Ketamine and Xylazine anesthesia) were determined before (day-1) and at various time points including 21 days following adjuvant injection. The rats were anesthetized with an intramuscular injection of 0.03-0.1 ml of a combination of Ketamine (87 mg/kg) and Xylazine (13 mg/kg) for radiographs and injection of adjuvant. Lateral to medial radiographs were made of both hind paws on days 0 and 21 for using the Faxitron (45 kVp, 30 seconds or 45 kVp, 1 second) and Kodak X-OMAT TL film, and were developed in an automatic processor. […] Specific criteria were used to establish the numerical grade of severity for each radiographic change. The maximum possible score per foot was 26. Compounds or vehicle were administered prophylactically beginning post injection of adjuvant and continuing for 21 days. The Compounds were prepared weekly, refrigerated in the dark until used, and vortex mixed immediately prior to administration. […] The liver, thymus and spleens of all rats were removed and weighed and both hind paws were removed and radiographed.
Two-factor (‘treatment’ and ‘time’) analysis of variance with repeated measures on ‘time’ were applied to the percent changes for body weight and foot volumes and to the rank-transformed radiographic total scores. A post hoc Dunnett's test was conducted to compare the effect of treatments to vehicle. A one-way analysis of variance was applied to the thymic and spleen weights followed by the Dunnett's test to compare the effect of treatments to vehicle.
Compounds or vehicle (0.5% Methocel in sterile water) were administered by oral gavage once daily for 21 days following induction of arthritis in female Lewis rats via the sub plantar injection of 0.1 ml of light mineral oil containing 0.5 mg of Mycobacterium butyricum. Control animals were not injected with adjuvant. Body weights were measured 1 day prior to (i.e. day 0) and at 14 and 21 days post induction of arthritis. The data in Table 1 represent the mean increase or decrease in body weight ±1 standard deviation for groups of 9 to 10 animals.
Compounds or vehicle (0.5% Methocel in sterile water) were administered by oral gavage once daily for 21 days following induction of arthritis in female Lewis rats via the sub plantar injection of 0.1 ml of light mineral oil containing 0.5 mg of Mycobacterium butyricum. Control animals were not injected with adjuvant.
Injected foot volumes were measured by mercury displacement plethysmography prior to induction of arthritis, and on days 4, 14 and 21 post induction of arthritis. The data represent the mean increase in foot volume ±1 standard deviation for groups of 9 to 10 animals. The extent of paw swelling in compound-treated animals was compared to the mean of that in the vehicle-treated group, and percentage inhibition was calculated for each dose level of compound.
Contralateral foot volumes were measured by mercury displacement plethysmography prior to, and at days 14 and 21 post induction of arthritis. The data represent the mean increase in foot volume ±1 standard deviation for groups of 9 to 10 animals. The extent of paw swelling in compound-treated animals was compared to the mean of that in the vehicle-treated group, and percentage inhibition was calculated for each dose level of compound.
[…] Data represent the mean weights of organs in mg ±1 standard deviation for groups of 9 to 10 animals.
Total radiographic scores were derived from examination of lateral radiographs obtained prior to, and on day 21 post induction of arthritis.

[5] = biological target: T3, recombinant human PPARγ (GST-PPARγ) (Homo sapiens, UniProt P37231); test: Scintillation Proximity Assay, displacement of [3H2]Compound A from PPARγ; type: binding; details: SPA, radioligand
T3 construct: The full length human cDNA for PPARγ 2 was subcloned into the pGEX-2 T expression vector; made in house; host or cells: E. coli
T3 sequence (P37231 1-505): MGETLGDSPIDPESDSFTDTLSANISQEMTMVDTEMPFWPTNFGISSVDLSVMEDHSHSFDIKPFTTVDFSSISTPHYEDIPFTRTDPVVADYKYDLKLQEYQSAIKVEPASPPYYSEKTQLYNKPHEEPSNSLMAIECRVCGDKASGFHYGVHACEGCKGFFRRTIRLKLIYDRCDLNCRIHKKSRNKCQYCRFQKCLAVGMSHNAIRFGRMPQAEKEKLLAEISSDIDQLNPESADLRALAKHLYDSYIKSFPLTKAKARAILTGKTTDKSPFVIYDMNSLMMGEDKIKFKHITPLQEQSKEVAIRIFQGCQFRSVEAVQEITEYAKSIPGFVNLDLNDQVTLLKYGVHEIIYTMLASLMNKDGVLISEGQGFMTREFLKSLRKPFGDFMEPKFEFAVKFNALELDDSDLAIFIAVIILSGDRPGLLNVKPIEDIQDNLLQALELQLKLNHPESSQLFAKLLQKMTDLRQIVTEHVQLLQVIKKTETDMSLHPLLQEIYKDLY
Description: as §1, §2, §3

[6] = weight at necropsy, day of euthanasia 21 (Compound 1, indomethacin) or 15 (Compounds 2-6), mean ± SD

SMILES | PPAR Activity [1] | IC50 [2] [µM] | IC50 ([3]; human PPARα binding, read-out: IC50 (μM: SPA or BND) Alpha) [µM] | Change in Secondary Foot Volume Day 14-0 ([4]; contralateral paw, p.o. q.d., Compounds 1, 2, 4, 6 30 mg/kg/day, Compound 3 50, Compound 5 100, indomethacin 2, mean ± SD) [µL] | Secondary Foot Volume % Inhibition Compared to Vehicle Day 14-0 ([4]; contralateral paw, same doses p.o. q.d.) [%] | Change in Primary Foot Volume Day 4-0 ([4]; injected paw, p.o. q.d., Compounds 1, 2, 4, 6 30 mg/kg/day, Compound 3 50, Compound 5 100, indomethacin 2, mean ± SD) [µL] | Primary Foot Volume % Inhibition Compared to Vehicle Day 4-0 ([4]; injected paw, same doses p.o. q.d.) [%] | Change in Primary Foot Volume Day 14-0 ([4]; injected paw, same doses p.o. q.d., mean ± SD) [µL] | change in body weight Day 14-0 ([4]; p.o. q.d., Compounds 1, 2, 4, 6 30 mg/kg/day, Compound 3 50, Compound 5 100, indomethacin 2 mg/kg/day, mean ± SD) [grams] | prevention of swelling of primary or secondary paws ([4]; up to day 14, rats then euthanized) | Spleen [4, 6] [mg] | Thymus [4, 6] [mg] | Kd ([3]; SPA, radioligand) [nM] | Kd [5] [nM]
O=C(O)c1c(Sc2ccccc2)c2cc(Cl)ccc2n1Cc1ccc(Cl)cc1 [Compound 3] | Gamma Antagonist | > 50 | > 10 | 869 ± 291 | 0 | 1853 ± 262 | 0 | 2606 ± 587 | −6.6 ± 6.1 | failed to prevent swelling of either the primary or secondary paws | 720.5 ± 155.1 | 152.7 ± 27.9 |  | 
CCCc1c(OCCCCOc2cccc(CC(=O)O)c2)ccc2c(-c3ccccc3)noc12 [Compound A, (3-(4-(3-phenyl-7-propyl-6-benz-[4,5]-isoxazoloxy)butyloxy))phenylacetic acid, reference compound] |  |  |  |  |  |  |  |  |  |  |  |  | ~10 | ~2.7
